≈ marks a conversion by molar mass, not a printed value.

Assay [1] has as its system Escherichia coli. The experiment in a line: Antibacterial activity against Escherichia coli ATCC 25922. The assay is classed as functional.
Assay [2] has as its target DNA topoisomerase 4 subunit A (Staphylococcus aureus, UniProt P0C1U9). The experiment in a line: Inhibitory activity against Staphylococcus aureus ATCC 29213 wild type Topo 4.
Assay [3] has as its system Staphylococcus aureus. The experiment in a line: Antibacterial activity against methicillin-resistant Staphylococcus aureus ATCC 700699. The assay is classed as functional.
The subject of assay [4] is Staphylococcus aureus. The experiment in a line: Antibacterial activity against Staphylococcus aureus ATCC 29213. The assay is classed as functional.
The subject of assay [5] is HEp-2. The experiment in a line: Cytotoxicity against Hep2 cell line. It is filed as functional. The following applies: Homo sapiens.

Chain of DNA topoisomerase 4 subunit A (P0C1U9 whole entry): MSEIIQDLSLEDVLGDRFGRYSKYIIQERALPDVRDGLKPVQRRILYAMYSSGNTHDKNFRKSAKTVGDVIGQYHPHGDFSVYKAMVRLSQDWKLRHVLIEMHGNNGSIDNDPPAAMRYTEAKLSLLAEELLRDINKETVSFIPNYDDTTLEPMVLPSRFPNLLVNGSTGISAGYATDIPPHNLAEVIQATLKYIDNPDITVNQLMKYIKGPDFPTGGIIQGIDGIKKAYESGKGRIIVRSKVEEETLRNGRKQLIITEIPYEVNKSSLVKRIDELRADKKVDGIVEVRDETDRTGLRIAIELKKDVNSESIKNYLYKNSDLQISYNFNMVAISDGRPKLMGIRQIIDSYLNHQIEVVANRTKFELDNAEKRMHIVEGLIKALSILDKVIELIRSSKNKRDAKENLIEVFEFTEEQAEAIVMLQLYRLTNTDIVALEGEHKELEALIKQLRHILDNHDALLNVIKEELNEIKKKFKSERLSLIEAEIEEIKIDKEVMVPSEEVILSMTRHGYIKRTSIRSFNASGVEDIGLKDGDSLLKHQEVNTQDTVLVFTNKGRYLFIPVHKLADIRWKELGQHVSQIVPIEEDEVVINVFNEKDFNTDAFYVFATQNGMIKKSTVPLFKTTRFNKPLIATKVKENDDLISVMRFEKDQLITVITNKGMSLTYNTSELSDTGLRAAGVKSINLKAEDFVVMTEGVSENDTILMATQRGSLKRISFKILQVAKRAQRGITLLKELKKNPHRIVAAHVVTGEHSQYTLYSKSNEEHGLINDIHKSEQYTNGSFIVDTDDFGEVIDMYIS

As for `O=c1[nH]sc2c1c(=O)c1cc(F)c(-c3ccc4cnccc4c3)cc1n2C1CC1`, the MIC turned out to be 0.13 µg/mL (≈ 0.322 µM) in assay [1], 0.5 µg/mL (≈ 1.24 µM) in assay [3] and 0.002 µg/mL (≈ 0.00496 µM) in assay [4]. Also, the half-inhibitory concentration (IC50) in assay [2] is 3.6 µM. Moreover, it took 22 µM to reach half-maximal cytotoxicity in assay [5] (CC50).

On to `O=c1[nH]sc2c1c(=O)c1cc(F)c(-c3ccc[nH]3)cc1n2C1CC1`, for which the values for the MIC in assay [1], in assay [3] and in assay [4] were 1 µg/mL (≈ 2.93 µM), 16 µg/mL (≈ 46.9 µM) and 0.06 µg/mL (≈ 0.176 µM), respectively. In addition, in assay [2], the concentration for half-maximal inhibition (IC50) was 9.9 µM. Besides, it took 23 µM to reach half-maximal cytotoxicity in assay [5] (CC50).

As for `COc1ncc(-c2cc3c(cc2F)c(=O)c2c(=O)[nH]sc2n3C2CC2)cn1`, the figures for the MIC in assay [1], in assay [3] and in assay [4] were 0.13 µg/mL (≈ 0.338 µM), 8 µg/mL (≈ 20.8 µM) and 0.015 µg/mL (≈ 0.039 µM), respectively. Further, the half-maximal inhibitory concentration (IC50) in assay [2] worked out at 3.3 µM. Also, in assay [5], it took 43 µM to reach half-maximal cytotoxicity (CC50).

As for `O=c1[nH]sc2c1c(=O)c1cc(F)c(-c3cncc4ccccc34)cc1n2C1CC1`, the minimum inhibitory concentration (MIC) in assay [1] came out at 0.48 µg/mL (≈ 1.19 µM); in assay [3], 8 µg/mL (≈ 19.8 µM); in assay [4], 0.028 µg/mL (≈ 0.0694 µM). Also, the IC50 in assay [2] was over 38 µM. This compound yielded a CC50 in assay [5] of 51 µM.

On to `O=c1[nH]sc2c1c(=O)c1cc(F)c(-c3cccc4cccnc34)cc1n2C1CC1`, for which the MIC worked out at 0.75 µg/mL (≈ 1.86 µM) in assay [1], 16 µg/mL (≈ 39.7 µM) in assay [3] and 0.13 µg/mL (≈ 0.322 µM) in assay [4]. Also, the IC50 in assay [2] was over 40 µM. The compound further displayed a CC50 in assay [5] of 79 µM.

In the case of `O=c1[nH]sc2c1c(=O)c1cc(F)c(-c3cnc4ccccc4c3)cc1n2C1CC1`, the minimum inhibitory concentration (MIC) in assay [1] was 0.13 µg/mL (≈ 0.322 µM); in assay [3] it was 8 µg/mL (≈ 19.8 µM); in assay [4], 0.011 µg/mL (≈ 0.0273 µM). This compound also returned an IC50 in assay [2] of 50 µM. For the same compound, the cytotoxic concentration (CC50) in assay [5] was over 100 µM.

`Cn1ccc2cc(-c3cc4c(cc3F)c(=O)c3c(=O)[nH]sc3n4C3CC3)ccc21`: the MIC in assay [1] amounted to 1 µg/mL (≈ 2.47 µM); in assay [3], 8 µg/mL (≈ 19.7 µM); in assay [4], 0.065 µg/mL (≈ 0.16 µM). In addition, the IC50 in assay [2] amounted to 3.6 µM. The same compound returned a CC50 in assay [5] of over 100 µM.

On to `O=c1[nH]sc2c1c(=O)c1cc(F)c(-c3cc4ccccc4[nH]3)cc1n2C1CC1`, for which the values for the minimum inhibitory concentration (MIC) in assay [1], in assay [3] and in assay [4] were 1 µg/mL (≈ 2.55 µM), 4 µg/mL (≈ 10.2 µM) and 0.06 µg/mL (≈ 0.153 µM), respectively. In assay [2], this compound gave an IC50 of 3.3 µM. The compound further came in with a cytotoxic concentration (CC50) in assay [5] of 9 µM.

For `O=c1[nH]sc2c1c(=O)c1cc(F)c(-c3cccnc3F)cc1n2C1CC1`, the MIC in assay [1] and in assay [4] was 0.015 µg/mL (≈ 0.0404 µM) each time. In assay [2], this compound registered an IC50 of 2.4 µM. The half-maximal cytotoxic concentration (CC50) in assay [5] is over 100 µM.

For `O=c1[nH]sc2c1c(=O)c1cc(F)c(-c3ccc4cncnc4c3)cc1n2C1CC1`, the minimum inhibitory concentration (MIC) in assay [1] was 4 µg/mL (≈ 9.89 µM); in assay [3], over 64 µg/mL; in assay [4], 0.06 µg/mL (≈ 0.148 µM). Also, the half-inhibitory concentration (IC50) in assay [2] is 29 µM. This compound yielded a CC50 in assay [5] of over 100 µM.

On to `O=c1[nH]sc2c1c(=O)c1cc(F)c(-c3ccc4ncccc4c3)cc1n2C1CC1`, for which the MIC was 0.13 µg/mL (≈ 0.322 µM) in assay [1], 1 µg/mL (≈ 2.48 µM) in assay [3] and 0.0032 µg/mL (≈ 0.00793 µM) in assay [4]. The compound also displayed an IC50 in assay [2] of 3.2 µM. The 50% cytotoxic concentration (CC50) in assay [5] is over 100 µM.

`O=c1[nH]sc2c1c(=O)c1cc(F)c(-c3ccncc3)cc1n2C1CC1`: the results for the minimum inhibitory concentration (MIC) in assay [1], in assay [3] and in assay [4] were 0.028 µg/mL (≈ 0.0792 µM), 1 µg/mL (≈ 2.83 µM) and 0.0035 µg/mL (≈ 0.0099 µM), respectively. Also, the IC50 in assay [2] was 2.2 µM.

In the case of `O=c1[nH]sc2c1c(=O)c1cc(F)c(-c3cccc4cnccc34)cc1n2C1CC1`, the minimal inhibitory concentration (MIC) was 0.061 µg/mL (≈ 0.151 µM) in assay [1], over 64 µg/mL in assay [3] and 0.016 µg/mL (≈ 0.0397 µM) in assay [4]. Moreover, the half-inhibitory concentration (IC50) in assay [2] is 23 µM. In assay [5], this compound returned a CC50 of 45 µM.

`O=c1[nH]sc2c1c(=O)c1cc(F)c(-c3ccc4[nH]ccc4c3)cc1n2C1CC1`: the MIC in assay [1] was found to be 0.059 µg/mL (≈ 0.151 µM); in assay [3], 2 µg/mL (≈ 5.11 µM); in assay [4], 0.004 µg/mL (≈ 0.0102 µM). Moreover, the IC50 in assay [2] is over 40 µM. The compound further displayed a CC50 in assay [5] of over 82 µM.

As to `COc1ccc(-c2cc3c(cc2F)c(=O)c2c(=O)[nH]sc2n3C2CC2)cn1`, the minimal inhibitory concentration (MIC) in assay [1] was found to be 0.015 µg/mL (≈ 0.0391 µM); in assay [3] it was 16 µg/mL (≈ 41.7 µM); in assay [4] it was 0.023 µg/mL (≈ 0.06 µM). Also, the IC50 in assay [2] was determined as 26 µM. In assay [5], this compound came in with a CC50 of over 100 µM.

The MIC is the smallest concentration in the dilution series that meets the test's criterion for growth inhibition. Higher therefore signals a less susceptible organism. For orientation: IC50 means the concentration at which inhibition is half-maximal. Read a low IC50 as inhibition by little substance. A word on the CC50: it is the concentration that lowers cell viability or growth by half. Lower therefore signals harm at low concentration.

Values taken from ChEMBL document CHEMBL1138996, “Biological evaluation of isothiazoloquinolones containing aromatic heterocycles at the 7-position: In vitro activity of a series of potent antibacterial agents that are effective against methicillin-resistant Staphylococcus aureus” (Bioorg Med Chem Lett, 2006).
